Assays:
H9 hESCs [1] = test: OLIG2 induction in thoracic and lumbar neuroectoderm at various day 5 reseed densities; type: cell-based, human; settings: for PAX6+/OLIG2+ cells: reseed 1.5×10^5 cells/cm^2
Description: However, OLIG2 induction was less efficient upon employing the standard deterministic HOX patterning protocol to generate thoracic and lumbar neuromesoderm followed by a CHIR boost and application of RA and SHH/PM (FIG. 6A). Only 11±2% and 67±9% of the cells in the thoracic and lumbar cultures, respectively, were PAX6^+/OLIG2^+ (FIGS. 6B-6C). We noted that our standard neuromesodermal protocol always used a reseed density of 1.5×10^5 cells/cm^2, which generates a relatively confluent but not tightly packed cell monolayer 24 h after seeding. Having previously determined that cell density and cell-cell contacts can serve as modulators of neural fate, we explored the effects of seeding density on OLIG2 induction.
(§1) hESCs were dissociated with accutase (Thermo Fisher Scientific) and reseeded at 1×10^5 cells/cm2 in E8 medium containing 10 μM ROCK inhibitor (Y27632; R&D Systems) on 6-well polystyrene tissue culture plates coated with 100 μg/mL poly-L-ornithine (PLO; Sigma) and 8 μg/well VTN-NC. The timelines and relevant growth factors/small molecules for all differentiation procedures are described in detail in the Results section and its accompanying figures. Cells were differentiated for various amounts of time in E6 medium containing the same insulin concentration as E8 medium as described above with varying combinations of soluble factors (product information and concentration ranges are found in Table 2). For neuromesodermal induction and HOX propagation, cells were sequentially cultured with FGF8b, CHIR99021 (CHIR), GDF11, and dorsomorphin (DM) as previously described. Briefly, to initiate the neuromesodermal state, cells were changed to E6 medium followed by addition of FGF8b (200 ng/ml) 24 h later. To generate cervical neuromesodermal progenitors, cells were washed with PBS, treated with accutase, and re-seeded in E6 medium containing 200 ng/ml FGF8b, 3 μM CHIR, and 10 μM Y27632 on VTN-NC-coated plates at a density of 1.5×10^5 cells/cm^2 for 48 h. To generate thoracic neuromesodermal progenitors, cells were passaged again after 72 h of CHIR treatment and re-seeded at different densities as described in the text.
Thoracic identity was reached after an additional 24 h. Then, to reach the lumbosacral level, cells were given 30 ng/ml GDF11 and 1 μM DM for an additional 48 h. For neuroectoderm induction and generation of OLIG2^+ progenitors, FGF8b was removed at the designated time points and the concentration of CHIR was increased for 6 h as described in the text, followed by a transition to media containing RA, PM, and SHH for a period of 48 h. For differentiation of the OLIG2^+ progenitors to motor neurons, cells were subcultured by en bloc passage using a cell scraper, reseeded at a 1:200 ratio in Matrigel-coated 8-well chamber slides, and differentiated for 14 days in E6 medium containing 1 μM RA, 100 nM PM, and 100 ng/mL SHH, with media exchange every 3 days (10 μM Y27632 was included during the en bloc passaging step and removed after the first media exchange). For differentiation of lumbar cultures, 1 μM DM was included in all steps. For the myoblast co-culture experiments, OLIG2^+ cultures were en bloc passaged, frozen in E6 medium containing 10% DMSO, shipped to a different location, and thawed 1:10 in 6-well plates under the same conditions as described in FIG. 5. To facilitate neuronal maturation prior to myoblast co-culture, 5 μM DAPT (Tocris) was added from days 8-14 post-thaw. Flow cytometry, RT-PCR, and qPCR (RPS18 and CTNNB1 Taqman primers from Thermo Fisher Scientific) were conducted as previously described.

H9 hESCs [2] = test: Induction of NKX6.1+/PAX6+/OLIG2+ motor neuron progenitors from cervical neuromesoderm (flow cytometry, immunocytochemistry); type: cell-based, human
Experimental: To begin, we sequentially differentiated H9 hESCs in E6 media for 1 day, and FGF8b (200 ng/mL) for 1 day, and FGF8b and CHIR (3 μM) for 2 days to generate cervical neuromesoderm (FIGS. 5A-5B). Then, we screened the effects of CHIR, PM, and SHH treatment on NKX6.1^+/PAX6^+/OLIG2^+ motor neuron progenitor induction while transitioning to media containing 1 μM RA (FIGS. 5A-5D). Prior to the addition of RA, NKX6.1 was expressed in the cervical neuromesodermal state at day 4 (80±18% NKX6.1^+; data not shown), likely due to the CHIR-induced Wnt/β-catenin signaling (FIGS. 4A-4H). Transitioning the neuromesodermal progenitors to RA-containing media for 2 days induced HOXB4^+/HOXC6^+/HOXC9^−/HOXD10^−/PAX6^+ cervical neuroectoderm in all conditions (FIGS. 5B-5C), as expected. However, without co-activation of SHH signaling by PM or SHH, NKX6.1 expression was quickly lost by day 6 (97±1% PAX6^+, 17±3% NKX6.1^+) (FIG. 5C). […] To bolster this claim, we also analyzed the abundance of full-length GLI3 versus its truncated repressor form by western blot. […] Thus, Wnt/β-catenin signaling is necessary to induce ventral identity, but its continuous activation during OLIG2 induction by SHH signaling is detrimental to motor neuron differentiation, possibly due to activation of the GLI3 repressor.
Next, we tested conditions where CHIR was removed after transitioning to media containing RA (1 μM), PM (2 μM), and SHH (2 μg/mL) (FIGS. 5A-5C).
Since NKX6.1 is a pre-requisite to OLIG2 expression, we hypothesized that the Wnt/β-catenin signaling-dependent NKX6.1 expression levels may still be too low for efficient OLIG2^+ motor neuron progenitor induction. Therefore, the concentration of CHIR was boosted to 6 or 9 μM for 6 h immediately prior to transitioning to E6 medium containing RA, PM, and SHH without CHIR (FIG. 5A). The 9 μM CHIR boost followed by a transition to media containing 1 μM RA, 2 μM PM, and 2 μg/mL SHH yielded optimal motor neuron progenitor cultures with highly uniform NKX6.1, OLIG2, and PAX6 expression (96±1%, 85±9%, and 97±2%, respectively) (FIGS. 5C-5D).
as §1
Thoracic identity was reached after an additional 24 h. Then, to reach the lumbosacral level, cells were given 30 ng/ml GDF11 and 1 μM DM for an additional 48 h. For neuroectoderm induction and generation of OLIG2^+ progenitors, FGF8b was removed at the designated time points and the concentration of CHIR was increased for 6 h as described in the text, followed by a transition to media containing RA, PM, and SHH for a period of 48 h. […]

[3] = 9 μM CHIR boost 6 h, then 1 μM RA, 2 μM PM, 2 μg/mL SHH without CHIR, day 6
[4] = CHIR continued at 3 μM with RA, PM 2 μM, SHH 2 μg/mL, day 6
[5] = CHIR continued at 6 μM with RA, PM, SHH, day 6

Q: How did the “PAX6+/OLIG2+ cells” value (H9 hESCs [1]; lumbar culture, CHIR boost then RA and SHH/PM) turn out when `Cc1c[nH]c(-c2cnc(NCCNc3ccc(C#N)cn3)nc2-c2ccc(Cl)cc2Cl)n1` [CHIR, CHIR99021] was run?
A: 67±9%

Q: What about the “OLIG2+ cells” value (H9 hESCs [1]; lumbar neuroectoderm, reseed 4×10^5 cells/cm^2, with dorsomorphin, CHIR boost then RA and SHH/PM) of the same compound?
A: 82±3%

Q: What about the “PAX6+/OLIG2+ cells” value (H9 hESCs [1]; thoracic culture, CHIR boost then RA and SHH/PM) of the same compound?
A: 11±2%

Q: And the “OLIG2+ cells” value (H9 hESCs [1]; thoracic neuroectoderm, day 5 reseed 1×10^5 cells/cm^2, CHIR boost then RA and SHH/PM)?
A: 19±5%

Q: And the “OLIG2+ cells” value (H9 hESCs [1]; thoracic neuroectoderm, day 5 reseed 2×10^5 cells/cm^2, CHIR boost then RA and SHH/PM)?
A: 48±3%

Q: And the “OLIG2+ cells” value (H9 hESCs [1]; thoracic neuroectoderm, day 5 reseed 4×10^5 cells/cm^2, CHIR boost then RA and SHH/PM)?
A: 80±3%

Q: What about the NKX6.1 expression (H9 hESCs [2]; [3]) of the same compound?
A: 96±1%

Q: And the OLIG2 expression (H9 hESCs [2]; [3])?
A: 85±9%

Q: And the PAX6 expression (H9 hESCs [2]; [3])?
A: 97±2%

Q: And the “NKX6.1 and PAX6/SOX2 neuroectoderm marker expression” value (H9 hESCs [2]; [4])?
A: uniformly expressed

Q: And the OLIG2 induction (H9 hESCs [2]; [4])?
A: minimal OLIG2 was induced

Q: And the OLIG2 induction (H9 hESCs [2]; [5])?
A: OLIG2 was still not induced

Q: What about the PAX6 expression (H9 hESCs [2]; [5]) of the same compound?
A: PAX6 expression was diminished

Q: And the PAX7 detection (H9 hESCs [2]; [5])?
A: no PAX7 was detected

Q: And the “NKX6.1+ cells in cervical neuromesodermal state” value (H9 hESCs [2]; FGF8b 200 ng/mL and CHIR 3 μM for 2 days, day 4, before RA)?
A: 80±18%

Source: patent US12084680B2, “Methods for efficient derivation of human motor neurons from diverse spinal regions” (Wisconsin Alumni Research Foundation, priority 2016, dated 2024)
